In patent publication US9938261B2, “Heterocyclic compounds and methods of use thereof” (AMBIT BIOSCIENCES CORPORATION, priority 2011, dated 2018):
pIC50, pKd: −log10 of the molar value.

What was measured:
PDGFRβ = target: T1, PDGFRβ (Homo sapiens, UniProt P09619); test: Competition binding assay, PDGFRβ Kd; conditions: competition binding
T1 construct: made in house
How it was run: (§1)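 Kinases as T7-phage fusions or HEK-293-expressed DNA-tagged constructs competed against immobilized biotinylated ligand on streptavidin beads, 1 h at room temperature in binding buffer. Bound kinase eluted and quantified by qPCR; Kd from eleven-point threefold dilution series.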

CSF1R = CSF1R (Homo sapiens, UniProt P07333); test: Competition binding assay, CSF1R Kd; design: made in house; conditions: competition binding
How it was run: as §1

KIT = target: T2, KIT (Homo sapiens, UniProt P10721); test: Competition binding assay, KIT Kd; conditions: competition binding
T2 construct: made in house
How it was run: as §1

M-NFS-60 cells = test: M-NFS-60 cell proliferation assay (Alamar Blue); assay type: cell-based, mouse; conditions: Mus musculus; M-NFS-60 cell proliferation; read-out: CSF1R M-NFS-60 CTB:IC50
How it was run: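 Alamar Blue reduction (3 h; 560/590 nm) measured viability after 72 h, 37 °C treatment with nine half-log compound concentrations at 0.5% DMSO. Cells: M-CSF-dependent (20 ng/mL) murine M-NFS-60 in RPMI plus 10% FBS. IC50s, averaged from duplicates, reflect half-maximal inhibition of proliferation relative to control.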

FLT3 = target: T3, FLT3 (Homo sapiens, UniProt P36888); test: Competition binding assay, FLT3 Kd; conditions: competition binding
T3 construct: made in house
T3 sequence (P36888 27-993): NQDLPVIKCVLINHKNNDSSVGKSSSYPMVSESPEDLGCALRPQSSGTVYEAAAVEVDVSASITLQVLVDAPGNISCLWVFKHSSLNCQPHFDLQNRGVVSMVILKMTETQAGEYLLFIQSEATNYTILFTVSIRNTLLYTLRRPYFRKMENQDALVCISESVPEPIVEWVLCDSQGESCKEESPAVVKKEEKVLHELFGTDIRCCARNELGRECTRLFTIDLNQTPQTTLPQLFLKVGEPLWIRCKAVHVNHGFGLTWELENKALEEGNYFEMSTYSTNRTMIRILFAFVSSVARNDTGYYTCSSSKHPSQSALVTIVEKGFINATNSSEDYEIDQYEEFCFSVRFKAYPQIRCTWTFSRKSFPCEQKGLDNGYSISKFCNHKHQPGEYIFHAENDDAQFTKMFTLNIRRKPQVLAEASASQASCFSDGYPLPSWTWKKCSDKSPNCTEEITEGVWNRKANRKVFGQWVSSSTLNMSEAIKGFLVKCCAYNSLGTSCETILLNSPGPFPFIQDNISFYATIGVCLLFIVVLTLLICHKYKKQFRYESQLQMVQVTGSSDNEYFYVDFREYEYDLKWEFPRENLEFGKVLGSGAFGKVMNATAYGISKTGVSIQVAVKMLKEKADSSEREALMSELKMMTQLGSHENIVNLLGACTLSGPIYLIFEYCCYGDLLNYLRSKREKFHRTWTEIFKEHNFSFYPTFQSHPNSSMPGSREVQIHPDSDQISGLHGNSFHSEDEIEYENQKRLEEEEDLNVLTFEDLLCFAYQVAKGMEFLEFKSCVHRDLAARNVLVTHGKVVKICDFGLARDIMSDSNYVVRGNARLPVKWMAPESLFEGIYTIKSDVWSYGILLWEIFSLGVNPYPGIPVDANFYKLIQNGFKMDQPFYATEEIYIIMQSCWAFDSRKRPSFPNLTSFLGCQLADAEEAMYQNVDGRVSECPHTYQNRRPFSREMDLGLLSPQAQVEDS
How it was run: as §1

[1] = target: kinase panel containing either 386 or 392 distinct kinases; test: Kinase selectivity score S10 from competition binding panel; conditions: 10 μM, panel of 386 or 392 distinct kinases
How it was run: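 S10 is the number of kinases with percent-of-control under 10, divided by all distinct wild-type kinases tested, from a single 10 μM concentration. Binding measured by qPCR of kinase recovered from ligand-coated beads after 1 h equilibrium at room temperature; kinases were phage fusions or DNA-tagged HEK-293 products.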

T1 sequence (P09619 33-1106): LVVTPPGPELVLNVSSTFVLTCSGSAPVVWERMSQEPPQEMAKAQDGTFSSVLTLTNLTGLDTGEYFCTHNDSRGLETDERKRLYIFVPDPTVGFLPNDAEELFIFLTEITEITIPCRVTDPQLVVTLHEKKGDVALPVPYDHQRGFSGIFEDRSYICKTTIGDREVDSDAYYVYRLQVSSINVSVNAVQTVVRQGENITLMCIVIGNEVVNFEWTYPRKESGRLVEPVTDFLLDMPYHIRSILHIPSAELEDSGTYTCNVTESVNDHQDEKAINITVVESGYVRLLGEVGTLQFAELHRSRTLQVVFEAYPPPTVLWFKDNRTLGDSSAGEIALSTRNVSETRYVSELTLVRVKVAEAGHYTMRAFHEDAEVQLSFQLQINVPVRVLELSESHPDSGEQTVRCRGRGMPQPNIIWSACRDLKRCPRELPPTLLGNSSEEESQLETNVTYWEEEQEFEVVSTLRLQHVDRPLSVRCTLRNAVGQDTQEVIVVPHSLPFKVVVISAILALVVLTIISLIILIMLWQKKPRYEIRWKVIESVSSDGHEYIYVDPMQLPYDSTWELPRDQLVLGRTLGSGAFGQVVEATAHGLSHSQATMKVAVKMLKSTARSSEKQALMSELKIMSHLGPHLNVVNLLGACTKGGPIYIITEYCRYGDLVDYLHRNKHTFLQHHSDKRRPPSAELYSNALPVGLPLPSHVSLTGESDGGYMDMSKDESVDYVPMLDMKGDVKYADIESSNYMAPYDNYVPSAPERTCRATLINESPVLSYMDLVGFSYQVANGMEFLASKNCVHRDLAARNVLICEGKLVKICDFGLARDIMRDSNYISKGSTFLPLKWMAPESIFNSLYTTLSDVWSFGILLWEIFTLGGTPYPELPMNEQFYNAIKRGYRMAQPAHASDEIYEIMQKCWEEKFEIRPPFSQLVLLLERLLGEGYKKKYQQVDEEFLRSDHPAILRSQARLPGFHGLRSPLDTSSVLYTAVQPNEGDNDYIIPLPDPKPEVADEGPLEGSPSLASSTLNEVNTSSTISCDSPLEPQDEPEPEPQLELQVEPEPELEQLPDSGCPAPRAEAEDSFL
Chain of CSF1R (P07333 20-972): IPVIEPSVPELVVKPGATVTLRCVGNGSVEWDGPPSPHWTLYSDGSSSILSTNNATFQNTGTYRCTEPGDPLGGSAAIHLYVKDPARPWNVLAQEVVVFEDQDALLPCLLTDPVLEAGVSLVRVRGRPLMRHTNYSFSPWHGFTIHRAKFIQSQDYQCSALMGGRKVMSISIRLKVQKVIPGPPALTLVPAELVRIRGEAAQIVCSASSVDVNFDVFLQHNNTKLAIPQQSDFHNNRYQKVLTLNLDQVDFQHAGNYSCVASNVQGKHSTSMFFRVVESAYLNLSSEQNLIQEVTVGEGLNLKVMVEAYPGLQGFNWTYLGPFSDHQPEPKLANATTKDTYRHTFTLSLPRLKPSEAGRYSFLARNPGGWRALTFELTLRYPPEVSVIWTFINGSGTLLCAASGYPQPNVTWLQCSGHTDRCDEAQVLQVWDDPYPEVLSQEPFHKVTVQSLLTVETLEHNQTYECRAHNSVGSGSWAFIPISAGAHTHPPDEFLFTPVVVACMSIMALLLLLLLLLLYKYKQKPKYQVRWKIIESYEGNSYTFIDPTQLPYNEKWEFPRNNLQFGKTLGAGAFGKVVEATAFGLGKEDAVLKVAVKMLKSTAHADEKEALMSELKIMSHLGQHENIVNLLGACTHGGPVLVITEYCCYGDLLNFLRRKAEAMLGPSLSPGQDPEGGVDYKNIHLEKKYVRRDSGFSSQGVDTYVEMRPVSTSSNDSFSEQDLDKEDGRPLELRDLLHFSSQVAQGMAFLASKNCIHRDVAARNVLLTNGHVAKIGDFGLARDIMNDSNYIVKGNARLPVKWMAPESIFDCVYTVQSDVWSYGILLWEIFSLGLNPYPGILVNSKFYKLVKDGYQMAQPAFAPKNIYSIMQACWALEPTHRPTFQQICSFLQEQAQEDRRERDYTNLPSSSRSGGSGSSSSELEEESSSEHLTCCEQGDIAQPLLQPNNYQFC
T2 sequence (P10721 26-976): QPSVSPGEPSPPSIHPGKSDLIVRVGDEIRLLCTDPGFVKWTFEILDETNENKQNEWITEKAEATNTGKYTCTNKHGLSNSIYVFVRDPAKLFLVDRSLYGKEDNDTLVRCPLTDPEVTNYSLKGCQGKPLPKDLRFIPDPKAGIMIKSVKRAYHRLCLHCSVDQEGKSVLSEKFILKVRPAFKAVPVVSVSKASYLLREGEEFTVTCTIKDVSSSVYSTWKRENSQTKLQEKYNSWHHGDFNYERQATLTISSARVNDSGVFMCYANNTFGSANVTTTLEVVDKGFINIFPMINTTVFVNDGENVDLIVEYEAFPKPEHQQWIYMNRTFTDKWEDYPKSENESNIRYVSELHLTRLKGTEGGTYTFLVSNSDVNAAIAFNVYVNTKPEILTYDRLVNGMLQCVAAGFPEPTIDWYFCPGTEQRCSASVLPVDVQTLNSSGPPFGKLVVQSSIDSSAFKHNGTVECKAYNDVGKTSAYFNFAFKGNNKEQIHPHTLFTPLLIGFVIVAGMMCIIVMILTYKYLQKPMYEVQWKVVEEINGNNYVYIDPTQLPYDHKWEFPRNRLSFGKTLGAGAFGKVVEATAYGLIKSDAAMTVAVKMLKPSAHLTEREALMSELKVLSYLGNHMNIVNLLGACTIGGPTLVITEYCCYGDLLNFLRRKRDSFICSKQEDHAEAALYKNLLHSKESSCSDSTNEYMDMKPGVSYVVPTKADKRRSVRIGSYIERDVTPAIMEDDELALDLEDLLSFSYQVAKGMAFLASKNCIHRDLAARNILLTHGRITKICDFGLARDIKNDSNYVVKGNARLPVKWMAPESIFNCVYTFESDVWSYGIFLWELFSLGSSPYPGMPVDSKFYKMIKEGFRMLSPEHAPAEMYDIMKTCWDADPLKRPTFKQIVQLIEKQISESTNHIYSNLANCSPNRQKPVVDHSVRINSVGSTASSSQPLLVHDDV

pKd (PDGFRβ)	pKd (CSF1R)	pKd (KIT)	pKd (FLT3)	Kinase specificity S(10) [1]	SMILES	pIC50 (M-NFS-60 cells)
≥ 7.30	7.70 to 8.30	6.30 to 7.00	5.30 to 6.00	B (0.01<B≤0.02)	OC[C@@H]1CCC[C@@H](Nc2nc3ccc(Cn4cnc5cc(F)cnc54)cc3s2)C1 [Example 192, ((1R,3R)-3-((6-((6-fluoro-3H-imidazo[4,5-b]pyridin-3-yl)methyl)benzo[d]thiazol-2-yl)amino)cyclohexyl)methanol]	5.82 to 6.40
≥ 7.30	7.70 to 8.30	≥ 7.00	5.30 to 6.00	A (A≤0.01)	O[C@@H]1[C@H](O)CCC[C@H]1Nc1nc2ccc(Cn3cnc4cc(F)cnc43)cc2s1 [Example 193, (1R,2S,3R)-3-((6-((6-fluoro-3H-imidazo[4,5-b]pyridin-3-yl)methyl)benzo[d]thiazol-2-yl)amino)cyclohexane-1,2-diol]	≥ 7.30
≥ 7.30	7.70 to 8.30	≥ 7.00	6.00 to 6.70	B (0.01<B≤0.02)	OC[C@H]1CCC[C@@H](Nc2nc3ccc(Cn4cnc5cc(F)cnc54)cc3s2)C1 [Example 194, ((1S,3R)-3-((6-((6-fluoro-3H-imidazo[4,5-b]pyridin-3-yl)methyl)benzo[d]thiazol-2-yl)amino)cyclohexyl)methanol]	6.40 to 7.30
5.70 to 6.30	7.30 to 7.70	5.70 to 6.30	5.30 to 6.00	A (A≤0.01)	N#Cc1cc2ncn(Cc3ccc4nc(N[C@@H]5CCCC[C@H]5O)oc4c3)c2cc1Cl [Example 195, 6-chloro-1-((2-(((1R,2R)-2-hydroxycyclohexyl)amino)benzo[d]oxazol-6-yl)methyl)-1H-benzo[d]imidazole-5-carbonitrile]	5.82 to 6.40

The next lines start with the compound.

SMILES	pKd (PDGFRβ)	pKd (CSF1R)	pKd (KIT)	pKd (FLT3)	Kinase specificity S(10) [1]	pIC50 (M-NFS-60 cells)
O[C@@H]1CCCC[C@H]1Nc1nc2ccc(Cc3cnc4cc(N5CCOCC5)ccn34)cc2s1 [Example 187, (1R,2R)-2-((6-((7-morpholinoimidazo[1,2-a]pyridin-3-yl)methyl)benzo[d]thiazol-2-yl)amino)cyclohexanol]	5.70 to 6.30	7.70 to 8.30	< 5.70	< 5.30	A (A≤0.01)	5.82 to 6.40
Cn1cc(-c2ccc3c(c2)ncn3Cc2ccc3nc(N[C@@H]4CCCC[C@H]4O)sc3c2)c(C(F)(F)F)n1 [Example 185, (1R,2R)-2-((6-((5-(1-methyl-3-(trifluoromethyl)-1H-pyrazol-4-yl)-1H-benzo[d]imidazol-1-yl)methyl)benzo[d]thiazol-2-yl)amino)cyclohexanol]	≥ 7.30	7.70 to 8.30	≥ 7.00	≥ 6.70	B (0.01<B≤0.02)	6.40 to 7.30
Cc1cc(Br)cc2ncn(Cc3ccc4nc(N[C@@H]5CCCC[C@H]5O)sc4c3)c12 [Example 190, (1R,2R)-2-((6-((5-bromo-7-methyl-1H-benzo[d]imidazol-1-yl)methyl)benzo[d]thiazol-2-yl)amino)cyclohexanol]	5.70 to 6.30	7.30 to 7.70	5.70 to 6.30	6.00 to 6.70	A (A≤0.01)	6.40 to 7.30
CC(C)(O)C#Cc1cnc2c(c1)ncn2Cc1ccc2nc(N[C@@H]3CCCC[C@H]3O)sc2c1 [Example 104, (1R,2R)-2-((6-((6-(3-hydroxy-3-methylbut-1-yn-1-yl)-3H-imidazo[4,5-b]pyridin-3-yl)methyl)benzo[d]thiazol-2-yl)amino)cyclohexanol]	≥ 7.30	≥ 8.30	≥ 7.00	≥ 6.70	A (A≤0.01)	≥ 7.30
OC[C@H]1CC[C@H](Nc2nc3ccc(Cn4cnc5cc(F)cnc54)cc3s2)CC1 [Example 179, (trans-4-((6-((6-fluoro-3H-imidazo[4,5-b]pyridin-3-yl)methyl)benzo[d]thiazol-2-yl)amino)cyclohexyl)methanol]	≥ 7.30	7.70 to 8.30	≥ 7.00	5.30 to 6.00	B (0.01<B≤0.02)	5.82 to 6.40
